Source: paper PMC9179341, “Design of New Potent and Selective Thiophene-Based KV1.3 Inhibitors and Their Potential for Anticancer Activity” (Cancers, 2022)

Tests used:
Type in all cases: cell-based
[1] = target: KV1.2 (Homo sapiens, UniProt P16389); assay: Selectivity, HiClamp Xenopus laevis heterologous expression system, KV1.2; settings: for Effect on KV1.2 channel: at a concentration of the compound's IC50 value for KV1.3; for IC50: HiClamp, oocytes, NA = no significant inhibition, no IC50 determined
Experimental: (§1) Ion channels (Kv1.x, Kv2.1, Kv4.2, Kv10.1) were expressed in Xenopus laevis oocytes by linearization of the plasmids and subsequent in vitro transcription using a commercial T7 or SP6 mMESSAGE mMACHINE transcription kit (Ambion, Carlsbad, California, USA). Defolliculated Xenopus oocytes were then injected with 20–50 nL of the cRNA at a concentration of 1 ng/nL using a micro-injector (Drummond Scientific1, Broomall, PA, USA). The oocytes were incubated in a solution containing (in mM): NaCl, 96; KCl, 2; CaCl2, 1.8; MgCl2, 2 and HEPES, 5 (pH 7.5), supplemented with 50 mg/L gentamycin sulfate and 90 mg/L theophylline. After ex vivo translation, the ion channels were correctly inserted in the cell membrane of the oocytes.
(§2) Two-electrode voltage-clamp recordings were performed at room temperature (18–22 °C) using a Geneclamp 500 amplifier (Molecular Devices, San Jose, CA, USA) and pClamp data acquisition (Axon Instruments, Union City, CA, USA) and using an integrated digital TEVC amplifier controlled by HiClamp, an automated Voltage-Clamp Screening System (Multi Channel Systems MCS GmbH, Reutlingen, Germany). Whole-cell currents from oocytes were recorded 1–4 days after injection. The bath solution composition was ND96 (in mM): NaCl, 96; KCl, 2; CaCl2, 1.8; MgCl2, 2 and HEPES, 5 (pH 7.5). Voltage and current electrodes were filled with a 3 M solution of KCl in H2O. Resistances of both electrodes were kept between 0.5 and 1.5 MΩ. The elicited Kv1.x, Kv2.1, Kv4.2 and Kv10.1 currents were filtered at 0.5 kHz and sampled at 2 kHz using a four-pole low-pass Bessel filter. Leak subtraction was performed using a P/4 protocol.
(§3) For the electrophysiological analysis of the compounds, a number of protocols were applied from a holding potential of −90 mV. Currents for Kv1.x, Kv2.1, Kv4.2 and Kv10.1 were evoked by 1 s depolarizing pulses either to 0 mV or to a range of voltage steps between −80 mV and +40 mV. For the analysis of the data, only the inhibition at the 0 mV step was used. The concentration dependency of all compounds was assessed by measuring the current inhibition in the presence of increasing compound concentrations. […] From this stock solution, adequate dilutions with a maximum of 0.5% DMSO were made for testing.
(§4) All electrophysiological data (Figure S1) are presented as means ± S.E.M of n ≥ three independent experiments unless otherwise indicated. All data were analyzed using pClamp Clampfit 10.4 (Molecular Devices, Downingtown, PA, USA), OriginPro 9 (Originlab, Northampton, MA, USA), GraphPad Prism 8 software (GraphPad Software, Inc., San Diego, CA, USA) and DataMining (Multi Channel Systems MCS GmbH, Reutlingen, Germany). The Dunnett test and one-way ANOVA were performed to calculate the significance of the induced inhibition compared to the control.

[2] = target: KV1.4 (Homo sapiens, UniProt P22459); assay: Selectivity, HiClamp Xenopus laevis heterologous expression system, KV1.4
Experimental: as §1
as §2, with “Resistances of both electrodes were kept between 0.5 and 1.5 MΩ. The elicited Kv1.x, Kv2.1, Kv4.2 and Kv10.1 currents were filtered at 0.5 kHz and sampled at 2 kHz using a four-pole low-pass Bessel filter. Leak subtraction was performed using a P/4 protocol.” left out
(§5) For the electrophysiological analysis of the compounds, a number of protocols were applied from a holding potential of −90 mV. […] The concentration dependency of all compounds was assessed by measuring the current inhibition in the presence of increasing compound concentrations. […]
as §4, with “The Dunnett test and one-way ANOVA were performed to calculate the significance of the induced inhibition compared to the control.” left out

[3] = target: KV1.5 (Homo sapiens, UniProt P22460); assay: Selectivity, HiClamp Xenopus laevis heterologous expression system, KV1.5; settings: for Effect on KV1.5 channel: at a concentration of the compound's IC50 value for KV1.3; for IC50: HiClamp, oocytes, NA = no significant inhibition, no IC50 determined
Experimental: as §1, §2, §3, §4

[4] = target: KV1.6 (Homo sapiens, UniProt P17658); assay: Selectivity, HiClamp Xenopus laevis heterologous expression system, KV1.6; settings: for Effect on KV1.6 channel: at a concentration of the compound's IC50 value for KV1.3; for IC50: HiClamp, oocytes, NA = no significant inhibition, no IC50 determined
Experimental: as §1, §2, §3, §4

[5] = target: T1, KV2.1 (Homo sapiens, UniProt Q14721); assay: Selectivity, HiClamp Xenopus laevis heterologous expression system, KV2.1
T1 sequence (Q14721 1-858): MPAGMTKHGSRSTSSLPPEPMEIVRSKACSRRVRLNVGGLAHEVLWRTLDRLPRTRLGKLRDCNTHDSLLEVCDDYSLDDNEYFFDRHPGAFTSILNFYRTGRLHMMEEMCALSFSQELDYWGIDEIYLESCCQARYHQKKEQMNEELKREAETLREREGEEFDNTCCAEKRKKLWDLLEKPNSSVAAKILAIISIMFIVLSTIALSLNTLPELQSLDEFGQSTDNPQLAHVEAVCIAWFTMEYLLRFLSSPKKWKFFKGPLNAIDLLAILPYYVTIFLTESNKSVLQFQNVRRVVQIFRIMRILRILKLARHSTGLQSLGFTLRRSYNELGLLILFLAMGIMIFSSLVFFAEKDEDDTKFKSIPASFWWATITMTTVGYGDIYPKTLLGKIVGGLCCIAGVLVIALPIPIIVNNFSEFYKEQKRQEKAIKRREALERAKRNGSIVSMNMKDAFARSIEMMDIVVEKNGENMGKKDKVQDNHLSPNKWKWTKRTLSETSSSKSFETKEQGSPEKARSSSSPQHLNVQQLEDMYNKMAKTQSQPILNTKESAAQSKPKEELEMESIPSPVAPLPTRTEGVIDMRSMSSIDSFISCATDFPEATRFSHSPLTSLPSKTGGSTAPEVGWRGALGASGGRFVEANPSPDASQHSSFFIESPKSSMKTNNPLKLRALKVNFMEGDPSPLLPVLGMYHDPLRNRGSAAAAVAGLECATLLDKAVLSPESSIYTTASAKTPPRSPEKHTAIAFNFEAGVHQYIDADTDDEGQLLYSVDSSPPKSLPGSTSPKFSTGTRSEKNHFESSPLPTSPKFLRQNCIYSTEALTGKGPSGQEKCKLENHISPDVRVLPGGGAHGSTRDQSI
Experimental: as §1
as §2, with “Resistances of both electrodes were kept between 0.5 and 1.5 MΩ. The elicited Kv1.x, Kv2.1, Kv4.2 and Kv10.1 currents were filtered at 0.5 kHz and sampled at 2 kHz using a four-pole low-pass Bessel filter. Leak subtraction was performed using a P/4 protocol.” left out
as §5
as §4, with “The Dunnett test and one-way ANOVA were performed to calculate the significance of the induced inhibition compared to the control.” left out

[6] = target: KV10.1 (Homo sapiens, UniProt O95259); assay: Selectivity, HiClamp Xenopus laevis heterologous expression system, KV10.1; settings: at a concentration of the compound's IC50 value for KV1.3
Experimental: as §1, with “After ex vivo translation, the ion channels were correctly inserted in the cell membrane of the oocytes.” left out
(§6) Two-electrode voltage-clamp recordings were performed at room temperature (18–22 °C) using a Geneclamp 500 amplifier (Molecular Devices, San Jose, CA, USA) and pClamp data acquisition (Axon Instruments, Union City, CA, USA) and using an integrated digital TEVC amplifier controlled by HiClamp, an automated Voltage-Clamp Screening System (Multi Channel Systems MCS GmbH, Reutlingen, Germany). Whole-cell currents from oocytes were recorded 1–4 days after injection. […]
as §5

[7] = target: KV1.3 (Homo sapiens, UniProt P22001); assay: KV1.3 inhibition, manual whole-cell patch-clamp on Ltk^− cells; design: expressed in transfected cells; host or cells: Ltk- cells (mouse fibroblasts), transient transfection with lipofectamine 2000
[8] = target: KV4.2 (Homo sapiens, UniProt Q9NZV8); assay: Selectivity, HiClamp Xenopus laevis heterologous expression system, KV4.2; settings: oocytes, NA = no significant inhibition, no IC50 determined
Experimental: as §1, with “After ex vivo translation, the ion channels were correctly inserted in the cell membrane of the oocytes.” left out
as §6, §5

[9] = HiClamp, oocytes, NA = no significant inhibition, no IC50 determined
[10] = at a concentration of the compound's IC50 value for KV1.3

KV1.6, sequence (P17658 whole entry): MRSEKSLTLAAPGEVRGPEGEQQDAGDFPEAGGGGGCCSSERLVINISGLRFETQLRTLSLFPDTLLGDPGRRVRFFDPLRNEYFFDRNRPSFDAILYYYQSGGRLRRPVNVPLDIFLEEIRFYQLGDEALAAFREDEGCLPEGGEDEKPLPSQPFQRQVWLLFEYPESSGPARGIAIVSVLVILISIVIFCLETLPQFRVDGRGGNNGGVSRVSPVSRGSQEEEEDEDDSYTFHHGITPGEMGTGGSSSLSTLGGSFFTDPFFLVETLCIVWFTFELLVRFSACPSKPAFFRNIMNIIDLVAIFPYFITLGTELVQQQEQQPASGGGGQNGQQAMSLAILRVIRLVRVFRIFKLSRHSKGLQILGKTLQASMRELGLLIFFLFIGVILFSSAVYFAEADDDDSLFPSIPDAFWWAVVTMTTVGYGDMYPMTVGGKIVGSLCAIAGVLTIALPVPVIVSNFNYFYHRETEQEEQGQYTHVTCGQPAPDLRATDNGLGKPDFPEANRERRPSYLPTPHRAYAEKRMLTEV
KV1.5, sequence (P22460 whole entry): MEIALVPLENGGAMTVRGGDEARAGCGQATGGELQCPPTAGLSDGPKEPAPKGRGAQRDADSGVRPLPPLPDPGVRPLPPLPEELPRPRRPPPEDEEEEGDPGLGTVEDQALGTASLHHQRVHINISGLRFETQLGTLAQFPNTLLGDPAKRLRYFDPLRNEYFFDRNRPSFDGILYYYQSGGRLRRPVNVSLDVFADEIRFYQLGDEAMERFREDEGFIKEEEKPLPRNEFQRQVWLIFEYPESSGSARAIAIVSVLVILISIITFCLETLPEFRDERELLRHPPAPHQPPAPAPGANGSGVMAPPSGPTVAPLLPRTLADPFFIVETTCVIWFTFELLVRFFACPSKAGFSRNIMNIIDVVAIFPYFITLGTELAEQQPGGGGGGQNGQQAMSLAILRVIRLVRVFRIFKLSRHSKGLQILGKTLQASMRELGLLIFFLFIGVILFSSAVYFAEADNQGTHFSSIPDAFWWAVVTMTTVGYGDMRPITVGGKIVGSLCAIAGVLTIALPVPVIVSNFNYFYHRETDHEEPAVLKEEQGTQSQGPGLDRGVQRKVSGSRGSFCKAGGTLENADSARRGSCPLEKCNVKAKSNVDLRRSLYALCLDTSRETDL
KV1.2, sequence (P16389 whole entry): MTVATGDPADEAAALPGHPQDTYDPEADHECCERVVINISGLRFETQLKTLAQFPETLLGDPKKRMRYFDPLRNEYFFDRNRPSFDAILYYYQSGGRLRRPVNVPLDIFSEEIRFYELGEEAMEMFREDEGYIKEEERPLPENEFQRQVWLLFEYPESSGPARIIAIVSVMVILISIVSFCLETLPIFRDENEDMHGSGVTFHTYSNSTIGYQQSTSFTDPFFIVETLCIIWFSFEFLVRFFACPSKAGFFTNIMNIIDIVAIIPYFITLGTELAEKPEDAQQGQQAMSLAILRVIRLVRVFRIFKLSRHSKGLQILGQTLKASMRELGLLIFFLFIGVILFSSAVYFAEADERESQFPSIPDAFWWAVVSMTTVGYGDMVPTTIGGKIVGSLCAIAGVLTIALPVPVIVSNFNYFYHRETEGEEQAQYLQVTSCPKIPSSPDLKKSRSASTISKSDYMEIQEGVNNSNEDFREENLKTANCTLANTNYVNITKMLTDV
KV1.3, sequence (P22001 whole entry): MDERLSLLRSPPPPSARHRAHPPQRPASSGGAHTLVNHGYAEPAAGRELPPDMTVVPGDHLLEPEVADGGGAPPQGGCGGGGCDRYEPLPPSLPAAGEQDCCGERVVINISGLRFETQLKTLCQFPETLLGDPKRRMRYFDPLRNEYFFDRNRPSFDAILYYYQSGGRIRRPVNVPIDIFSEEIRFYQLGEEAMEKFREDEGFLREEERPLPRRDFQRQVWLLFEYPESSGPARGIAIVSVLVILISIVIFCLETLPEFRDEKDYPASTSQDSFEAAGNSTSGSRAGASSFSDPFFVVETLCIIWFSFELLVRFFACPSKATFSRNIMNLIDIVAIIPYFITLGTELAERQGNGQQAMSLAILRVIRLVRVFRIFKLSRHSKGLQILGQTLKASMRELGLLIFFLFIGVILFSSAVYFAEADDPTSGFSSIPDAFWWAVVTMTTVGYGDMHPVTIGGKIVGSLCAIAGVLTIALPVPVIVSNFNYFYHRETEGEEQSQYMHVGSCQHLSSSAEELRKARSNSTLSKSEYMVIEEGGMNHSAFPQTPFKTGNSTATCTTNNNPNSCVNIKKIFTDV
KV1.4, sequence (P22459 whole entry): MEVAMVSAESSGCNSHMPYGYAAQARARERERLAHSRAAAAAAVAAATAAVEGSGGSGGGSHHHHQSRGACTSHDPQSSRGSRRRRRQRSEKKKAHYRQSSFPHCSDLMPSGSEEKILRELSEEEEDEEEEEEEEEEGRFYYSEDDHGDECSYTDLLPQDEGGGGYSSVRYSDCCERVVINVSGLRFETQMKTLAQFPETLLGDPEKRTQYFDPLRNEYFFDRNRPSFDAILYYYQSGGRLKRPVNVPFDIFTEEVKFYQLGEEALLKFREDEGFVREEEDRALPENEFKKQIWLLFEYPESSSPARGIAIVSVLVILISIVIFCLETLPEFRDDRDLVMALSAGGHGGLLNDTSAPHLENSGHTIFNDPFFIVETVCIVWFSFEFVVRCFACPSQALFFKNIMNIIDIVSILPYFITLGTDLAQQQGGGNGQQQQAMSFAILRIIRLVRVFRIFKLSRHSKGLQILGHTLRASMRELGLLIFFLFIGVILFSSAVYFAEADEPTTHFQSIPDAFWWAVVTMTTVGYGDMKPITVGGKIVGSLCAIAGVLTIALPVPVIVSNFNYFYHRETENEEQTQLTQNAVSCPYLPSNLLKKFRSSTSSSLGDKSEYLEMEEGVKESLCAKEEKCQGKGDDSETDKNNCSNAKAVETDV
KV4.2, sequence (Q9NZV8 whole entry): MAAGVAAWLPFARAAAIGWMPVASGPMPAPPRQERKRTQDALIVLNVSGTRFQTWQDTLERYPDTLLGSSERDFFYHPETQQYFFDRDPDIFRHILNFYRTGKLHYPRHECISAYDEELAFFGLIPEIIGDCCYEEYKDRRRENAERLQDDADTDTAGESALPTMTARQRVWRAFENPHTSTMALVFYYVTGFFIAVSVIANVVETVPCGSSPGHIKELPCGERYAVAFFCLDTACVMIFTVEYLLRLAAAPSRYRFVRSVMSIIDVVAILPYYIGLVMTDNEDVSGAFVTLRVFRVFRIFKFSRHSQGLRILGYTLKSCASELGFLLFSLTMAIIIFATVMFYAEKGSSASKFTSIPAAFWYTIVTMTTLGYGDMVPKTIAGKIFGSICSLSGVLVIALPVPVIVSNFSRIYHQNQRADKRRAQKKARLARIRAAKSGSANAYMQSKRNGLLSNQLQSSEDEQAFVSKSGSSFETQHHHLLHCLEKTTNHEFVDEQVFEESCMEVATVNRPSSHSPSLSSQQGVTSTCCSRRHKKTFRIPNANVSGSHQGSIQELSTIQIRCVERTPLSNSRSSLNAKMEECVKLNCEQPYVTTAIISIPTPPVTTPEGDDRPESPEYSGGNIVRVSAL
KV10.1, sequence (O95259 whole entry): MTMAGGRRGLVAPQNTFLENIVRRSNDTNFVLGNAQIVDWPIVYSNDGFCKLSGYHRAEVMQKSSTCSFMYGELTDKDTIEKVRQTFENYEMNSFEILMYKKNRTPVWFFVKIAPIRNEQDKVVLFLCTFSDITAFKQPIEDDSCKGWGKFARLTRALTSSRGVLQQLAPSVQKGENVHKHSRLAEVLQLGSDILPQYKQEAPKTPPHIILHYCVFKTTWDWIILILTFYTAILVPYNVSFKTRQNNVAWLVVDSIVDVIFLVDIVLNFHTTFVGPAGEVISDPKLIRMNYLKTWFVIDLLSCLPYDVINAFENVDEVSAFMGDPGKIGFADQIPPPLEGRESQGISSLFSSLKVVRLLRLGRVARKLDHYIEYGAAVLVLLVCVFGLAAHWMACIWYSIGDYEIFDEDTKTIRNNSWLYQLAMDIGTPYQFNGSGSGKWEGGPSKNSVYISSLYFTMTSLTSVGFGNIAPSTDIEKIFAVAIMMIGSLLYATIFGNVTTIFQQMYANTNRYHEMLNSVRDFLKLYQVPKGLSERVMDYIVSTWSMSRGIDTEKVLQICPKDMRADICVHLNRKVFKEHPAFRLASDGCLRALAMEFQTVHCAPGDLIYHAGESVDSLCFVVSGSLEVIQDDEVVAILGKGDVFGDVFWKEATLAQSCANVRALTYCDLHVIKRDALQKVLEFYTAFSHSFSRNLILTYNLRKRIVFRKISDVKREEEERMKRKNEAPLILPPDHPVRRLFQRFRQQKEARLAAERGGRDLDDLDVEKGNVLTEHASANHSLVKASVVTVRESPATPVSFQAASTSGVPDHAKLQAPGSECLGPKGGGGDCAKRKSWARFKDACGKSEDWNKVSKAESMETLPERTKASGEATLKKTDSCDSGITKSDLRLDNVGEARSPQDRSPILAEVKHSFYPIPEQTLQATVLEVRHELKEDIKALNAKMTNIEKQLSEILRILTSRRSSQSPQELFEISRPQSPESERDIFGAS

Effect on KV1.2 channel [1] | IC50 [2, 9] | inhibition of KV1.4 [2, 10] | Effect on KV1.5 channel [3] | Effect on KV1.6 channel [4] | Effect on KV2.1 channel [5, 10] | Effect on KV10.1 channel [6] | IC50 [7] | IC50 [1] | IC50 [3] | IC50 [4] | IC50 [5, 9] | IC50 [8] | SMILES
no significant effects | 8.48 ± 2.21 µM | ~16% | no significant effects | no significant effects | no significant effects | no significant effects | 950 ± 240 nM |  |  |  |  |  | COc1ccccc1C(=O)NCC1(c2ccsc2)CCOCC1 [Compound 44]
significant effects |  |  | significant effects | significant effects |  |  | 1330 ± 200 nM | 4000 ± 200 nM | 2.07 ± 0.13 µM | 430 ± 20 nM | 6.45 ± 0.42 µM | 2410 ± 880 nM | COc1ccccc1C(=O)NCC1(c2cccs2)CCOC1 (stereo not shown) [Compound 14]
significantly inhibited |  |  | significantly inhibited | significantly inhibited |  |  | 1350 ± 40 nM | 2340 ± 260 nM | 8.64 ± 0.03 µM | 4330 ± 1210 nM |  |  | COc1ccc(F)cc1C(=O)NCC1(c2ccccc2)CCOCC1 [Compound 37]
significant effects |  |  | significant effects | significant effects |  |  | 1020 ± 70 nM | 2760 ± 560 nM | 4.33 ± 0.01 µM | 830 ± 10 nM |  |  | COc1ccccc1C(=O)NCC1(c2cccs2)CCOCC1 [Compound 43]
